Assays:
wt and ASMko mice [1] = assay: Accelerating Rotarod (motor abilities); assay type: in vivo, mouse; details: 0.3 mg/kg every three days
Procedure: (§1) Treatment started at 7 weeks of age and continued for 8 weeks. PF-04457845 was dissolved in 0.9% NaCl and delivered through oral gavage at a dose of 0.3 mg/kg every three days. We chose this dose based on the studies published by Ahn et al., (J Pharm Exp Ther 2011). Control groups received same volume of 0.9% NaCl without PF-04457845.
Cerebellar dependent motor abilities were monitored in an accelerating Rotarod (FIG. 12) on which the mice were trained for two days at a constant speed: the first day four times at 4 rpm for 1 min and the second day four times at 8 rpm for 1 min. On the third day, the Rotarod was set to progressively accelerate from 4 to 40 rpm for 5 min and the mice were tested four times. During the accelerating trials, the latency to fall from the rod was measured. Non-treated ASMko mice spent less time on the rod in the four trials than wt mice, indicative of impaired motor abilities.

pediatric ASMD patient = assay: Single patient preliminary clinical trial: liver enzymes ALT and AST; assay type: in vivo, human
Description: Based on the compelling safety and efficacy data from the ASMko mouse model, we submitted an expanded access request to the Food and Drug Administration for a single patient preliminary clinical trial to assess the effect of PF-04457845 administration to a single pediatric ASMD patient. The FDA approved the trial, and it is presently ongoing. The patient received their first does of PF-04457845 (which is being administered via NG-tube delivery) nearly one year ago now, and the patient will continue to be monitored for improvement in ASMD-related symptoms and/or markers.
Although clinical trial data is not available to us yet, it is worth noting as per the normal standard of care for this patient, weekly or biweekly monitoring of liver enzymes alanine aminotransferase (ALT) and aspartate transaminase (AST) has been ongoing since before initiation of the trial and these analyses are ongoing. Elevated blood levels of AST and ALT are seen in 50%-75% of ASMD patients (McGovern M, et al., Orphanet J Rare Dis. 2017; 12: 41) and are indicative of liver damage caused by the progression of the disease. […] Moreover, ALT/AST ratios appear stable.

[2] = cited from earlier work
[3] = system: cultured primary hippocampal neurons from ASMko mice; assay: Sphingomyelin levels by enzymatic assay in cultured primary hippocampal neurons from ASMko mice; assay type: cell-based, mouse
Description: FIGS. 5A-5D show sphingomyelin and endocannabinoid levels in cultured primary hippocampal neurons and hippocampal tissue, respectively, from ASMko and wildtype mice.
Statistical significance Student's t-test, *P<0.05, **P<0.005, n=3 independent cultures.
Statistical significance Student's t-test, **P<0.005, n=3 independent cultures.
Anandamide (AEA) is the major endogenous CB1 ligand. We therefore tested whether increased levels of anandamide affected sphingomyelin levels in cultured primary hippocampal neurons from ASMko mice. Anandamide was increased in two ways: • 1. By incubating the neuronal cultures with exogenous anandamide; and • 2. By incubating the neuronal cultures with PF-04457845, which is an inhibitor of the anandamide hydrolytic enzyme FAAH. Inhibition of FAAH causes accumulation of anandamide by inhibiting FAAH-mediated hydrolyzation of anandamide.
The following experiments were performed in three independent cultures of hippocampal neurons derived from ASMko mice. Treatments were done at 11-13 days in vitro when these cells are considered mature and functional.
To set the optimal conditions for such hydrolysis in terms of concentration and time of incubation, anandamide was added to the culture medium of mature ASMko hippocampal neurons at 0, 5, 25, 50 and 100 μM for 30 minutes or 1 hour. […] The optimal conditions for SM degradation were in a range of concentration of 25-50 μM for 1 hour. […] We therefore decided to use 25 μM anandamide for 1-hour incubation time in our next experiments.
Similar to the anandamide dose/time response experiment above, we performed another dose response experiment using URB597 (URB), an inhibitor of the anandamide-hydrolyzing enzyme FAAH, to be used as reference for the other FAAH inhibitors. The experiments were done in the presence or absence of exogenous anandamide. URB was added to the culture medium of ASMko mature neurons at 0, 5, 25 and 50 μM for 1 hour with or without □□ μM anandamide.
We next compared URB efficacy to reduce SM levels with that of other FAAH inhibitors PF-04457845 (PF) and JNJ-1661010 (JNJ).

microglia = assay: Microglia number and morphology by iba-1 immunofluorescence after 8-week treatment; assay type: in vivo, mouse; details: 0.3 mg/kg every three days
Procedure: Representative images of microglia stained for iba-1 (green) in the cerebellum, hippocampus and cortex of wt and ASMko mice treated or not with PF-04457845. […] Graphs show mean±SEM microglia number and cell body area (n=7, **p<0.01, *p<0.05).
as §1
Brain inflammation was determined by analysis of glial cells in the cerebellum, hippocampus and cortex. The number and morphology of microglia was analyzed by immunofluorescence staining with the marker iba-1 (FIG. 16). […] PF-04457845 treatment had no effect in microglia of wt mice. The amount of astrocytes was analyzed by immunofluorescence with the marker GFAP (FIG. 17). […] PF-04457845 treatment had no effect in astrocytes of wt mice (FIG. 17).

wt and ASMko mice [4] = assay: Elevated Plus Maze test; assay type: in vivo, mouse; details: 0.3 mg/kg every three days
Procedure: FIGS. 13A-13C show the effect of PF-04457845 treatment on various behavioral functions. […] (n=14; **p<0.01, *p<0.05).
as §1
Mood alterations were monitored by the Tail Suspension Test (FIG. 13B) and by the Elevated Plus Maze test (FIG. 13C) that give an idea of depressive state and anxiety, respectively. […] PF-04457845 treatment had no effect in the behavior of wt mice.

wt and ASMko mice [5] = assay: Survival analysis (life span); assay type: in vivo, mouse
Procedure: as §1
Behavioral analyses were performed in the last 2 weeks of treatment while still administering the drug. Then, half of the mice were sacrificed for biochemical and histological analysis and the other half continued receiving the treatment to monitor life span.
Seven mice per condition remained under treatment to monitor life span. While the mean survival of non-treated ASMko mice was 29 weeks, PF-04457845 treatment extended ASMko mice mean life span to 38 weeks (FIG. 19).

[6] = about one year of treatment via NG-tube, preliminary

O=C(Nc1cccnn1)N1CCC(=Cc2cccc(Oc3ccc(C(F)(F)F)cn3)c2)CC1 [PF-04457845]
time on the rod (Rotarod) (wt and ASMko mice [1]; ASMko mice, second, third and fourth trials): significantly improved the time on the rod
time on the rod (Rotarod), treated versus non-treated (wt and ASMko mice [1]; wt mice): No differences
ALT/AST ratios (pediatric ASMD patient; about one year of treatment): stable
ALT, current value relative to pre-treatment (pediatric ASMD patient; [6]): approximately half
AST, current value relative to pre-treatment (pediatric ASMD patient; [6]): approximately half
tolerability (pediatric ASMD patient; about one year of treatment, preliminary): well tolerated without signs of liver toxicity
tolerability of much higher doses in healthy humans ([2]; Li et al., 2011): well tolerated
safety in healthy humans ([2]; Ling et al., BJCP 2011): safety in healthy humans has been already demonstrated
dose sufficient, well tolerated and providing maximal effects on FAAH activity and fatty acid amide elevation ([2]; once daily, healthy humans, Li et al., Br J Clin Pharmacol 2011): 0.5 mg
SM hydrolysis ([3]; 50 μM and 1 hour (FIG. 8)): promoted SM hydrolysis
sphingomyelin levels ([3]; ASMko neurons, 1 hour incubation (FIG. 5A)): reduced sphingomyelin levels
microglia amoeboid morphology in the hippocampus and cerebellum (microglia; ASMko mice): normalized to a significant extent
microglia morphology in cerebellum (iba-1) (microglia; ASMko mice): normalized their morphology
microglia number in cerebellum (iba-1) (microglia; ASMko mice): reduced microglia number
microglia (microglia; wt mice): no effect
behavior in Elevated Plus Maze test (anxiety) (wt and ASMko mice [4]; ASMko mice): normalized
behavior in Elevated Plus Maze test (wt and ASMko mice [4]; wt mice): no effect
lifespan extended (wt and ASMko mice [5]; ASMko mice): 31%
mean life span (wt and ASMko mice [5]; ASMko mice, continued treatment 0.3 mg/kg every three days): 38 weeks
survival (wt and ASMko mice [5]; wildtype mice): did not affect
